From patent EP0802730B1, “PESTICIDAL COMPOUNDS” (BTG INTERNATIONAL LIMITED, priority 1995, dated 1996)
Converted amounts (≈) assume the structure as drawn.

Experiments:
[1] = system: Houseflies (MD) (Musca domestica); format: in vivo; details: Tables 10, 13, 14; NA = lack of detectable activity
Method: Female flies were treated on the thorax with a one microlitre drop of test compound dissolved in acetone. Two replicates of 15 flies were used at each dose rate and 6 dose rates were used per compound under test. After treatment, the flies were maintained at a temperature of 20° ± 1°C and kill was assessed 24 and 48 hours after treatment. LD50 values were calculated in micrograms of test compound per fly (see Sawicki et al., Bulletin of the World Health Organisation, 35, 893 (1966) and Sawicki et al., Entomologia and Exp. Appli 10, 253, (1967).

[2] = system: Mites (TU) (Tetranychus urticae), susceptible strain (GSS); experiment: Mite immersion test, susceptible strain GSS; format: in vivo; details: 72 h, Tables 10, 13, 14, susceptible strain, NA = lack of detectable activity, read-out: TU LC50 (ppm/insect)
Method: 25 adult female mites were immersed in 35 µl of a solution of the test compound in a 1:4 acetone-water mixture for 30 seconds. The treated insects were maintained at 21° ± 2°C and kill was assessed 72 hours after treatment. […] Three replicates of 25 mites each were used at each dose rate and 5 or 6 dose rates were used per compound under test. LC50 values were calculated in ppm of the solution of the test compound per insect. The test was carried out using a susceptible strain of mites (GSS) supplied by Schering, AG, Berlin.

[3] = system: Myzus persicae, susceptible strain (US1L); experiment: Aphid dip test, susceptible strain; format: in vivo; details: read-out: MP % kill 100 ppm
Method: Activity against resistant (R) and susceptible (S) strains of aphid (Myzus persicae) was assessed using the following method.
Entrapment rings of fluon were painted halfway up the inside of 4 cm lengths of glass tubing (1.5 cm diameter), and squares of insect-proof gauze were attached to one end of each tube by elastic bands. Fifteen apterous adults were then gently transferred into the tubes using a sable-hair brush, and the tube sealed with a second gauze square.
Tubes containing aphids were dipped into insecticide solutions for 10 seconds, dried on blotting paper, and then inverted and tapped to cause treated aphids to fall to the unimmersed end of each tube. Handling mortality (usually zero or very slight) was scored after 1 hour, when aphids were transferred onto chinese cabbage leaf-discs (35 mm diameter) on an agar bed (25 mm in depth) in disposible plastic containers (30 mm high) and confined by applying a ring of fluon to the exposed lip of the container. Containers were store upright, without lids, in a constant environment facility maintained at 25°C under continuous room lighting. Mortality was assessed at 24, 48 and 72 hours. Two replicates of 15 aphids each were used at each dose rate and 5 or 6 dose rates were used per compound under test.
The test was carried out using a susceptible strain of aphids (US1L) collected in the field in East Anglia, UK and an extremely resistant strain of aphids (794Jz) (R3 esterase, sensitive AChE) collected from glasshouses in the UK.
The values given are % mortality corrected for control data. The control comprised the test solution without active ingredient.

[4] = system: Whitefly (BT) (Bemisia tabaci), susceptible strain (SUD-S); experiment: Whitefly residual film vial test, susceptible strain SUD-S; format: in vivo; details: 48 h, Tables 10, 13, 14, susceptible strain, NA = lack of detectable activity, read-out: BT LC50 (ppm/insect)
Method: Acetone solutions (0.100 ml) of the test compounds were placed in 10 ml glass vials and evaporated with rotation to deposit a film of the compound. Thirty adult whiteflies were placed inside the vial, then after 60 minutes, the treated insects were transferred onto untreated cotton leaf discs which were kept moist on a bed of agar gel. The temperature was maintained at 25°C and mortality assessed after 48 hours. Three replicates were used at each of 5 to 7 dose levels per compound.

[5] = system: Mustard beetles (PC) (Phaedon cochleariae Fab); format: in vivo; details: Tables 10, 13, 14; NA = lack of detectable activity
Method: A one microlitre drop of an acetone solution of the test compound was applied ventrally to adult mustard beetles using a micro drop applicator. The treated insects were maintained for 48 hours after which time kill was assessed. Two replicates each of 20 to 25 mustard beetles were used at each dose level and 5 dose levels were treated comparably. LD50 values were calculated as for houseflies.

Aspergillus niger = experiment: Fungitoxicity in vitro on potato dextrose agar; format: cell-based; details: A. niger; 1 mg 1^-1; 4 days
[6] = system: Pyricularia oryzae (=Magnaporthe grisea); format: cell-based; details: P. oryzae, 7 days
Rhizoctonia solani = experiment: Fungitoxicity in vitro on potato dextrose agar; format: cell-based; details: R. solani, 4 days

Row | SMILES | MD LD50 (µg/insect) [1] | LC50 [2] [µg/mL] | mortality at 100 ppm [3] [%] | LC50 [4] [µg/mL] | PC LD50 (µg/insect) [5] | % inhibition of growth in colony diameter in agar plates, Activity at 1 mg 1^-1 (Aspergillus niger) [%] | % inhibition of growth in colony diameter in agar plates, Activity at 1 mg 1^-1 ([6]; 1 mg 1^-1) [%] | % inhibition of growth in colony diameter in agar plates, Activity at 5 mg 1^-1 ([6]; 5 mg 1^-1) [%] | % inhibition of growth in colony diameter in agar plates, Activity at 1 mg 1^-1 (Rhizoctonia solani; 1 mg 1^-1) [%] | % inhibition of growth in colony diameter in agar plates, Activity at 5 mg 1^-1 (Rhizoctonia solani; 5 mg 1^-1) [%]
1 | CC1(C2=C(O)C(=O)c3ccccc3C2=O)C=CCCC1 (stereo not shown) [Example 31] | 6 µg/insect | ~50 (≈ 186 µM) | 5 | 4.7 (≈ 17.5 µM) | 5 µg/insect | – | – | – | – | –
2 | CCCN(CCOc1c(Cl)cc(Cl)cc1Cl)C(=O)n1ccnc1 [Prochloraz, prochloraz, reference compound] | – | – | – | – | – | 97.8 | – | – | – | –
3 | CC(=O)OC1=C(CCC(C)(C)C)C(=O)c2ccccc2C1=O [Example 47, 2-ethanoyloxy-3-(3,3-dimethylbutyl)-naphthalene-1,4-dione] | 2.2 µg/insect | ~20 (≈ 66.6 µM) | ~100 | 2.1 (≈ 6.99 µM) | c1 µg/insect | – | – | – | – | –
4 | CC1(CC2=C(O)C(=O)c3ccccc3C2=O)CCCCC1 [Example 32, 2-hydroxy-3-((1'methylcyclohexyl)-methyl)-naphthalene-1,4-dione] | 3.6 µg/insect | 2.9 (≈ 10.2 µM) | 50 | 3.6 (≈ 12.7 µM) | <2 µg/insect | – | – | – | – | –
5 | CC(C)(C)CCCCC1=C(O)C(=O)c2ccccc2C1=O [Example 38, 2-(5,5-dimethylhexyl)-3-hydroxy-naphthalene-1,4-dione] | 5.3 µg/insect | 3.5 (≈ 12.2 µM) | ~100 | ~60 (≈ 210 µM) | c8 µg/insect | – | – | – | – | –
6 | CC(C)(C)CCCCCC1=C(O)C(=O)c2ccccc2C1=O [Example 39] | c5 µg/insect | 9.6 (≈ 32 µM) | ~100 | 21 (≈ 69.9 µM) | – | – | – | – | – | –
7 | CCCCCCC1=C(O)C(=O)c2ccccc2C1=O [-(CH2)5CH3, reference compound] | c20 µg/insect | 170 (≈ 658 µM) | 0 | 9.4 (≈ 36.4 µM) | c7 µg/insect | – | – | – | – | –
8 | CC(=O)OC1=C(C(C)(C)C)C(=O)c2ccccc2C1=O [Example 46] | 2.3 µg/insect | ~500 (≈ 1840 µM) | ~60 | – | c15 µg/insect | – | – | – | – | –
9 | COC(=O)Nc1nc2ccccc2[nH]1 [Carbendazim, carbendazim, reference compound] | – | – | – | – | – | – | 14.7 | 99.8 | 3.3 | 82.4
10 | CC(=O)OC1=C(CC2(C)CCCCC2)C(=O)c2ccccc2C1=O [Example 33, 2-acetoxy-3-((1'-methylcyclohexyl)-methyl)-naphthalene-1,4-dione] | 5.7 µg/insect | 2.3 (≈ 7.05 µM) | 30 | 5.1 (≈ 15.6 µM) | 2.8 µg/insect | – | – | – | – | –
11 | O=C1C(O)=C(C2(C(F)(F)F)CCCCC2)C(=O)c2ccccc21 [Example 28, 2-hydroxy-3-(1'-trifluoromethylcyclohexyl)-naphthalene-1,4-dione] | 14 µg/insect | 40 (≈ 123 µM) | 5 | 24 (≈ 74 µM) | – | – | – | – | – | –
12 | CC(C)(C)CCCCCCC1=C(O)C(=O)c2ccccc2C1=O [Example 40] | c5 µg/insect | 5 (≈ 15.9 µM) | ~100 | 13 (≈ 41.3 µM) | – | – | – | – | – | –
13 | CC(=O)OC1=C(CCCCCCC=CCC(C)(C)C)C(=O)c2ccccc2C1=O [Example 49, 2-ethanoyoxy-3-(10,10-dimethylundecan-7-enyl)-naphthalene-1,4-dione] | c18 µg/insect | 2.3 (≈ 5.8 µM) | ~15 | – | c10 µg/insect | – | – | – | – | –
